The source of these data is patent publication US20040086901A1, “Database for analyzing gene function and method of analyzing gene function by dspa” (priority 2000, published 2004).

Non-standard residues stand in square brackets, D forms with d. Residues, ends and D or L forms follow the SMILES beside them. Nle = CCCC[C@H](N)C(=O)O

Holding throughout (type): cell-based, mouse
Assay [1] deals with NIH3T3 cells overexpressing erbB2. In words: MTT cell viability, erbB2 overexpressing cells vs parental line. The settings on record: erbB2 high-expressing cells / parental cell line, 3 to 4 days. In outline:
(§1)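 Stable NIH3T3 transfectants (cDNA in pRc-CMV-type vector, G-418-selected, high expressers picked by Western blot) and parental cells were seeded at 1×10^5 cells/ml into twofold serial drug dilutions and grown 3–4 days. MTT formazan was read at 574/655 nm, and log ratios of IC40 values were derived.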

The test system of assay [2] is NIH3T3 cells overexpressing cystatin E. The assay can be described thus: MTT cell viability, cystatin E overexpressing cells vs parental line. Conditions: cystatin E high-expressing cells / parental cell line, 3 to 4 days. In a few lines:
as §1

The test system of assay [3] is NIH3T3 cells overexpressing p33/ING1. In words: MTT cell viability, p33/ING1 overexpressing cells vs parental line. Conditions: p33/ING1 high-expressing cells / parental cell line, 3 to 4 days. In a few lines: as §1
The test system of assay [4] is NIH3T3 cells overexpressing RhoA. The assay can be described thus: MTT cell viability, RhoA overexpressing cells vs parental line. Conditions: RhoA high-expressing cells / parental cell line, 3 to 4 days. In a few lines:
as §1

For assay [5], the system named is NIH3T3 cells overexpressing calpastatin. The assay can be described thus: MTT cell viability, calpastatin overexpressing cells vs parental line. Conditions: calpastatin high-expressing cells / parental cell line, 3 to 4 days. In a few lines:
as §1

The test system of assay [6] is NIH3T3 cells overexpressing caspase-3. In words: MTT cell viability, caspase-3 overexpressing cells vs parental line. The settings on record: caspase-3 high-expressing cells / parental cell line, 3 to 4 days. In outline: (§2)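 Each full-length cDNA is expressed from a CMV vector in NIH3T3 cells, and a high-expressing clone is compared with the parental line. Viability is measured by MTT after 3–4 days with graded drug concentrations, and the log IC40 ratio is reported.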

For assay [7], the system named is NIH3T3 cells, TPA (PKC downreg). The assay can be described thus: MTT cell viability, TPA (PKC downreg) cells vs parental line. The settings on record: 3 to 4 days.
Assay [8] relates to NIH3T3 cells overexpressing caspase-2. The assay can be described thus: MTT cell viability, caspase-2 overexpressing cells vs parental line. Conditions: caspase-2 high-expressing cells / parental cell line, 3 to 4 days. In a few lines: as §1
Assay [9] deals with NIH3T3 cells overexpressing N-ras. In words: MTT cell viability, N-ras overexpressing cells vs parental line. The settings on record: N-ras high-expressing cells / parental cell line, 3 to 4 days. In a few lines:
as §1

The test system of assay [10] is NIH3T3 cells overexpressing Regucalcin. In words: MTT cell viability, Regucalcin overexpressing cells vs parental line. Conditions: Regucalcin high-expressing cells / parental cell line, 3 to 4 days. In outline: as §1
The subject of assay [11] is NIH3T3 cells overexpressing CaMKIIa. The assay can be described thus: MTT cell viability, CaMKIIa overexpressing cells vs parental line. The settings on record: CaMKIIa high-expressing cells / parental cell line, 3 to 4 days. In outline:
as §2

Assay [12] deals with NIH3T3 cells overexpressing STAT1. In words: MTT cell viability, STAT1 overexpressing cells vs parental line. The settings on record: STAT1 high-expressing cells / parental cell line, 3 to 4 days. In outline:
as §2

Assay [13] concerns NIH3T3 cells overexpressing Bax. In words: MTT cell viability, Bax overexpressing cells vs parental line. The settings on record: 3 to 4 days. In outline: as §2
Assay [14] deals with NIH3T3 cells overexpressing CBP8. The assay can be described thus: MTT cell viability, CBP8 overexpressing cells vs parental line. Conditions: CBP8 high-expressing cells / parental cell line, 3 to 4 days. In a few lines:
as §1

For assay [15], the system named is NIH3T3 cells overexpressing HNF4. In words: MTT cell viability, HNF4 overexpressing cells vs parental line. The settings on record: HNF4 high-expressing cells / parental cell line, 3 to 4 days. In outline: as §2
Assay [16] relates to NIH3T3 cells overexpressing Ki-ras. The assay can be described thus: MTT cell viability, Ki-ras overexpressing cells vs parental line. The settings on record: Ki-ras high-expressing cells / parental cell line, 3 to 4 days. In outline: as §1
The test system of assay [17] is NIH3T3 cells overexpressing p16/INK4A. The assay can be described thus: MTT cell viability, p16/INK4A overexpressing cells vs parental line. Conditions: p16/INK4A high-expressing cells / parental cell line, 3 to 4 days. In a few lines: as §1
Assay [18] concerns NIH3T3 cells overexpressing HNF3b. In words: MTT cell viability, HNF3b overexpressing cells vs parental line. Conditions: HNF3b high-expressing cells / parental cell line, 3 to 4 days. In a few lines:
as §2

The test system of assay [19] is NIH3T3 cells overexpressing cAMP-PK-CS. In words: MTT cell viability, cAMP-PK-CS overexpressing cells vs parental line. The settings on record: cAMP-PK-CS high-expressing cells / parental cell line, 3 to 4 days. In a few lines: as §2
The test system of assay [20] is NIH3T3 cells overexpressing caspase-1. The assay can be described thus: MTT cell viability, caspase-1 overexpressing cells vs parental line. The settings on record: caspase-1 high-expressing cells / parental cell line, 3 to 4 days. In outline:
as §2

The mark [21] stands for this setting: Bax (first of two Bax lines) high-expressing cells / parental cell line.
The mark [22] stands for this setting: Bax (second of two Bax lines) high-expressing cells / parental cell line.

For the molecule ICE inhibitor-III [ICEin-3], the “logarithmic value of ratio of IC40 values” in assay [1] is 0.18; in assay [2], 0.07; in [3] it was −0.15; in assay [4], 0.19; in [5] it was −0.088; in [6], 0.13. The “logarithmic value of ratio of IC40 values” is on record as −0.09 in [7]; 0.04 in assay [8]; 0.38 in [9]; 0.00 in [10]; 0.00 in [11]; 0.09 in [12]. Also, the “logarithmic value of ratio of IC40 values” in assay [13] (setting [21]) was −0.12; in [13] (setting [22]), 0.00; in [14], 0.18; in [15], 0.00; in [16], 0.30; in assay [17] it was 0.15. The “logarithmic value of ratio of IC40 values” in [18] is −0.09; in assay [19], 0.00; in assay [20], 0.11.
As for `C[C@@H]1C[C@@H]([C@H](O)CC2CC(=O)NC(=O)C2)C(=O)[C@@H](C)C1` [CHX, cycloheximide], the “logarithmic value of ratio of IC40 values” is given as −0.64 in [1]; 0.00 in [2]; −0.30 in assay [3]; 0.14 in assay [4]; 0.31 in assay [5]; 0.10 in [6]. In addition, the “logarithmic value of ratio of IC40 values” is on record as 0.00 in assay [7]; 0.74 in assay [8]; −0.42 in assay [9]; 0.08 in [10]; 0.04 in assay [11]; 0.00 in assay [12]. The “logarithmic value of ratio of IC40 values” is given as −0.08 in assay [13] (setting [21]); 0.00 in [13] (setting [22]); 0.00 in [14]; 0.22 in [15]; −0.43 in [16]; 0.04 in [17]. Besides, the entries for the “logarithmic value of ratio of IC40 values” in assay [18], in assay [19] and in assay [20] were 0.07, 0.23 and −0.05, respectively.
Take `C=C[C@@]1(C)CC(=O)[C@]2(O)[C@@]3(C)[C@@H](O)CCC(C)(C)[C@@H]3[C@H](O)[C@H](OC(C)=O)[C@@]2(C)O1` [Forskolin, forskolin]: the “logarithmic value of ratio of IC40 values” is 0.28 in [1]; 0.29 in assay [2]; 0.63 in assay [3]; 0.47 in assay [4]; −0.09 in assay [5]; 1.12 in assay [6]. The “logarithmic value of ratio of IC40 values” in assay [7] is −0.17; in assay [8] it was −0.34; in assay [9], 0.54; in assay [10], −0.10; in [11] it was 0.00; in assay [12] it was 0.51. Moreover, the “logarithmic value of ratio of IC40 values” in [13] (setting [21]) was 0.00; in assay [13] (setting [22]), −0.26; in assay [14], 0.40; in assay [15] it was 0.00; in assay [16] it was 0.36; in [17], 0.70. In addition, the “logarithmic value of ratio of IC40 values” in assay [18] was 0.00; in assay [19] it was 0.51; in assay [20], 0.34.
Consider `O=CN/C=C/c1cc(O)ccc1O` [Erbstatin, erbstatin], for which the “logarithmic value of ratio of IC40 values” in assay [1] is on record as −0.05; in [2], −0.06; in [3], 0.11; in assay [4], 0.14; in assay [5] it was −0.2; in assay [6], −0.10. Further, the “logarithmic value of ratio of IC40 values” in assay [7] is 0.00; in [8], −0.07; in assay [9] it was −0.22; in assay [10], 0.00; in [11], 0.14; in [12], 0.04. Also, the “logarithmic value of ratio of IC40 values” in [13] (setting [21]) is on record as 0.27; in assay [13] (setting [22]) it was 0.04; in [14], 0.14; in assay [15] it was 2.00; in assay [16], 0.04; in assay [17] it was 0.51. The “logarithmic value of ratio of IC40 values” in assay [18] is reported as −0.03; in assay [19] it was 0.05; in [20], −0.22.
Turning to `CCCC[C@@H](C=O)NC(=O)[C@H](CC(C)C)NC(=O)[C@H](CC(C)C)NC(C)=O` [ALLN] (Ac-Leu-Leu-[Nle]-aldehyde), the “logarithmic value of ratio of IC40 values” in assay [1] was −0.05; in assay [2], 0.19; in [3], 0.08; in assay [4], 0.00; in [5], 0.10; in assay [6], −0.09. Besides, the “logarithmic value of ratio of IC40 values” in assay [7] is reported as −0.09; in assay [8] it was −0.04; in assay [9], 0.17; in assay [10] it was 0.00; in [11], 0.00; in assay [12], 0.17. Besides, the “logarithmic value of ratio of IC40 values” in assay [13] (setting [21]) was −0.10; in assay [13] (setting [22]) it was 0.11; in [14] it was 0.11; in [15], −0.15; in assay [16] it was 0.11; in assay [17] it was 0.09. Further, the “logarithmic value of ratio of IC40 values” is given as 0.28 in assay [18], 0.20 in [19] and −0.04 in [20].
